Experimental data published in patent US6316409A, “Modified ligands of calcium-dependent binding proteins” (Medical Research Council, priority 1996, dated 2001).
“Also recorded” adds a separate entry of the source. Peptide text beside a SMILES is read from it.

Experiments:
bovine brain calmodulin [1] = target: T1, bovine brain calmodulin (Bos taurus, UniProt P62157); assay: stopped-flow measurement of kisom of calmodulin-binding peptides; details: changes in tryptophan fluorescence
T1 construct: Complexes between calmodulin from bovine brain (1 μM, Sigma); purchased Sigma; host or cells: bovine brain (tissue-derived)
Excerpt: It has been shown by Torok and Trentham (1994) that smooth muscle MLCK-derived peptides bind to calmodulin with a biphasic kinetic according to the scheme: [drawing 1]
in which P is the peptide, C is calmodulin, P-C is the first complex formed on association of P and C, which then undergoes a conformational isomerisation to P-C*.
(§1) For a kinetic and thermodynamic characterisation of the binding of the peptides of the present invention to bovine brain calmodulin, we have measured the kinetic isomerisation, association, and dissociation constants from which dissociation constants can be derived.
kisom constants have been measured by stopped-flow, detecting changes in tryptophan fluorescence for all the peptides except 3 (SEQ ID NO:4), in which the tryptophan is replaced by alanine.

bovine brain calmodulin [2] = target: T1, bovine brain calmodulin; assay: BIAcore surface plasmon resonance, kon and koff of calmodulin binding to biotinylated peptides; details: for koff / kon / increase in kon with respect to the wild-type peptide 1: BIAcore; for koff: read-out: koff (s^-1)^B; for kon: read-out: kon (s^-1 M^-1)^B
Excerpt: as §1
koff =k-1·k-2 /(k+2 +k-2)
Real-time interaction analysis by surface plasmon resonance on a BIAcore instrument (Jonsson et al., 1991) was used to determine kon and koff constants. Biotinylated peptides 1-17 were bound to commercially available streptavidin-coated microsensor chips (Pharmacia Biosensor), in order to achieve a surface capacity of 100-200 surface plasmon resonance units of calmodulin bound. Different concentrations of calmodulin (5, 10, 20, 50 and 100 nM in the order of FIG. 2) were injected and allowed to associate with the peptides. Regeneration of the surface was achieved by injection of 5 μl TBS+[…] which dissociates the calmodulin-peptide complex.

calmodulin = calmodulin (Bos taurus, UniProt P62157); assay: koff by competition experiments, native PAGE of fluorescein-labelled peptide/calmodulin complexes; assay type: binding, bovine; design: Complexes between calmodulin from bovine brain (1 μM, Sigma); purchased Sigma; host or cells: bovine brain (tissue-derived); details: for dissociation from calmodulin in competition with excess unlabelled peptide, in words: FIG. 3; for koff: competition with 30-fold excess unlabelled peptide, room temperature, gel buffer, read-out: koff (s^-1)^C
Protocol: Complexes between calmodulin from bovine brain (1 μM, Sigma) and fluorescein-labelled sMLCK-derived peptides (as described in Table 1 (SEQ ID NOS:2-18)) were prepared in gel buffer (25% gel mix [4 g sucrose+1 mg bromophenol blue in water to give a 10 ml solution]+75% TBSC [50 mM TRIS pH 7.4, […]+50 μM CaCl2)] and run on a 15% native PAGE gel (5 ml 30% acrylamide-bisacrylamide solution+4.5 ml water+0.5 ml 3M Tris, pH 8.8, +1 μl 1M CaCl2 polymerised with 30 μl 25% ammonium persulphate and 9 μl TEMED) using 14.4 g/l glycine+3 g/l Tris-base+0.1 mM CaCl2 as running buffer. Peptides were labelled either with iodoacetamido fluorescein (Molecular Probes) or with iodoacetamido-LC-biotin (Pierce) essentially as previously described by Neri et al., (1995). In these conditions, the fluorescence of the positively-charged labelled peptides can be detected only if they form a stable complex with calmodulin.
In order to obtain an independent experimental confirmation if the BIAcore results, koff constants for peptides 1-17 towards calmodulin were determined by competition experiments. 30 nM fluorescein-labelled peptide/calmodulin complexes in gel buffer were competed at room temperature for different times with 30-fold excess of unlabelled peptide. The resulting mixtures were run on native PAGE gels and imaged by LUANA as described above. The bands in the image obtained were integrated using the LUANA software (Neri et al., 1996) and the corresponding intersities plotted versus time and fitted with a single exponential, from which koff constants were derived. In order to normalise band intensities against pipetting errors, the samples contained 6 nM free fluorescein which ran with the front. The fluorescein bands were integrated and used to normalise the calmodulin/fluorescent peptide complex band intensity. The results of competitions for peptides 1, 2, 3, 6, 9, and 14 are shown in this FIG. 3. Incubation time in minutes is indicated under the lanes.
The volumes of the bands were plotted versus competition time and fitted to a single exponential, from which koff values were derived.
The fastest competitions (peptides 1-4, 9 and 13, SEQ ID NOS:2-5,10, and 14) were over by the time the calmodulin/fluorescent peptide complex entered the gel (approximately 5-10 minutes from pipetting a molar excess of unlabelled peptide; FIG. 3), from which a condition on the off-rate constant koff >1×10^-3 s^-1 was derived. Even for these fast off-rates, complexes can be detected by native polyacrylamide gel electrophoresis because of the well known gel "cage effect" (Fried and Crothers, 1981; Garner and Revzin, 1981).

Row | SMILES | kisom. (s^-1)^A (bovine brain calmodulin [1]) | koff (bovine brain calmodulin [2]) [s⁻¹] | kon (bovine brain calmodulin [2]) [M⁻¹ s⁻¹] | dissociation from calmodulin in competition with excess unlabelled peptide, in words (calmodulin) | koff (calmodulin) [s⁻¹] | increase in kon with respect to the wild-type peptide 1 (bovine brain calmodulin [2]) | improvement of koff with respect to wild type, in words (bovine brain calmodulin [2]) | improvement in Kd / affinity for calmodulin over the wild type peptide, in words (bovine brain calmodulin [2]; Table 1)
1 | CC[C@H](C)[C@H](NC(=O)[C@H](Cc1ccccc1)NC(=O)[C@H](CC(N)=O)NC(=O)[C@H](CCCCN)NC(=O)[C@H](CCCCN)NC(=O)[C@H](Cc1c[nH]c2ccccc12)NC(=O)[C@H](CCCNC(=N)N)NC(=O)[C@H](C)NC(=O)[C@H](C)NC(=O)[C@H](C)NC(=O)[C@@H](N)CS)C(=O)N[C@@H](C)C(=O)N[C@H](C(=O)N[C@@H](CO)C(=O)N[C@@H](C)C(=O)N[C@@H](C)C(=O)N[C@@H](CC(N)=O)C(=O)N[C@@H](CCCNC(=N)N)C(=O)N[C@@H](Cc1ccccc1)C(=O)N[C@@H](CCCCN)C(=O)N[C@@H](CCCCN)C(=O)N[C@H](C(=O)N[C@@H](CO)C(N)=O)[C@@H](C)CC)C(C)C [Peptide 1, CAAA-RWKKNFIAVSAANRFKKIS-CONH2] (H-CAAARWKKNFIAVSAANRFKKIS-NH2; N-terminus assumed) | 1.9 (10.7) × 10^-1 s^-1 | 0.0024 | 650000 | dissociated from calmodulin in a few minutes | ≥ 0.001 |  |  | 
2 | CC[C@H](C)[C@H](NC(=O)[C@H](Cc1ccccc1)NC(=O)[C@H](CC(N)=O)NC(=O)[C@H](CCCCN)NC(=O)[C@H](CCCCN)NC(=O)[C@H](Cc1c[nH]c2ccccc12)NC(=O)[C@H](C)NC(=O)[C@H](C)NC(=O)[C@H](C)NC(=O)[C@H](C)NC(=O)[C@@H](N)CS)C(=O)N[C@@H](C)C(=O)N[C@H](C(=O)N[C@@H](CO)C(=O)N[C@@H](C)C(=O)N[C@@H](C)C(=O)N[C@@H](CC(N)=O)C(=O)N[C@@H](CCCNC(=N)N)C(=O)N[C@@H](Cc1ccccc1)C(=O)N[C@@H](CCCCN)C(=O)N[C@@H](CCCCN)C(=O)N[C@H](C(=O)N[C@@H](CO)C(N)=O)[C@@H](C)CC)C(C)C [Peptide 2] (H-CAAAAWKKNFIAVSAANRFKKIS-NH2; N-terminus assumed) | 1.2 (10.5) × 10^-1 s^-1 | 0.0015 | 3e+06 | dissociated from calmodulin in a few minutes | ≥ 0.001 | 4-5 fold |  | 
3 | CC[C@H](C)[C@H](NC(=O)[C@H](Cc1ccccc1)NC(=O)[C@H](CC(N)=O)NC(=O)[C@H](CCCCN)NC(=O)[C@H](CCCCN)NC(=O)[C@H](C)NC(=O)[C@H](CCCNC(=N)N)NC(=O)[C@H](C)NC(=O)[C@H](C)NC(=O)[C@H](C)NC(=O)[C@@H](N)CS)C(=O)N[C@@H](C)C(=O)N[C@H](C(=O)N[C@@H](CO)C(=O)N[C@@H](C)C(=O)N[C@@H](C)C(=O)N[C@@H](CC(N)=O)C(=O)N[C@@H](CCCNC(=N)N)C(=O)N[C@@H](Cc1ccccc1)C(=O)N[C@@H](CCCCN)C(=O)N[C@@H](CCCCN)C(=O)N[C@H](C(=O)N[C@@H](CO)C(N)=O)[C@@H](C)CC)C(C)C [Peptide 3] (H-CAAARAKKNFIAVSAANRFKKIS-NH2; N-terminus assumed) |  | 0.005 | 3.2e+06 | dissociated from calmodulin in a few minutes | ≥ 0.001 | 4-5 fold |  | 
4 | CC[C@H](C)[C@H](NC(=O)[C@H](Cc1ccccc1)NC(=O)[C@H](CC(N)=O)NC(=O)[C@H](CCCCN)NC(=O)[C@H](C)NC(=O)[C@H](Cc1c[nH]c2ccccc12)NC(=O)[C@H](CCCNC(=N)N)NC(=O)[C@H](C)NC(=O)[C@H](C)NC(=O)[C@H](C)NC(=O)[C@@H](N)CS)C(=O)N[C@@H](C)C(=O)N[C@H](C(=O)N[C@@H](CO)C(=O)N[C@@H](C)C(=O)N[C@@H](C)C(=O)N[C@@H](CC(N)=O)C(=O)N[C@@H](CCCNC(=N)N)C(=O)N[C@@H](Cc1ccccc1)C(=O)N[C@@H](CCCCN)C(=O)N[C@@H](CCCCN)C(=O)N[C@H](C(=O)N[C@@H](CO)C(N)=O)[C@@H](C)CC)C(C)C [Peptide 4] (H-CAAARWAKNFIAVSAANRFKKIS-NH2; N-terminus assumed) | 2.4 (10.6) × 10^-1 s^-1 | 0.003 | 1.3e+06 |  | ≥ 0.001 |  |  | 
5 | CC[C@H](C)[C@H](NC(=O)[C@H](Cc1ccccc1)NC(=O)[C@H](CC(N)=O)NC(=O)[C@H](C)NC(=O)[C@H](CCCCN)NC(=O)[C@H](Cc1c[nH]c2ccccc12)NC(=O)[C@H](CCCNC(=N)N)NC(=O)[C@H](C)NC(=O)[C@H](C)NC(=O)[C@H](C)NC(=O)[C@@H](N)CS)C(=O)N[C@@H](C)C(=O)N[C@H](C(=O)N[C@@H](CO)C(=O)N[C@@H](C)C(=O)N[C@@H](C)C(=O)N[C@@H](CC(N)=O)C(=O)N[C@@H](CCCNC(=N)N)C(=O)N[C@@H](Cc1ccccc1)C(=O)N[C@@H](CCCCN)C(=O)N[C@@H](CCCCN)C(=O)N[C@H](C(=O)N[C@@H](CO)C(N)=O)[C@@H](C)CC)C(C)C [Peptide 5] (H-CAAARWKANFIAVSAANRFKKIS-NH2; N-terminus assumed) | 7.4 (11.0) × 10^-2 s^-1 | 0.00029 | 1.1e+06 |  | 0.00021 |  |  | 
6 | CC[C@H](C)[C@H](NC(=O)[C@H](Cc1ccccc1)NC(=O)[C@H](C)NC(=O)[C@H](CCCCN)NC(=O)[C@H](CCCCN)NC(=O)[C@H](Cc1c[nH]c2ccccc12)NC(=O)[C@H](CCCNC(=N)N)NC(=O)[C@H](C)NC(=O)[C@H](C)NC(=O)[C@H](C)NC(=O)[C@@H](N)CS)C(=O)N[C@@H](C)C(=O)N[C@H](C(=O)N[C@@H](CO)C(=O)N[C@@H](C)C(=O)N[C@@H](C)C(=O)N[C@@H](CC(N)=O)C(=O)N[C@@H](CCCNC(=N)N)C(=O)N[C@@H](Cc1ccccc1)C(=O)N[C@@H](CCCCN)C(=O)N[C@@H](CCCCN)C(=O)N[C@H](C(=O)N[C@@H](CO)C(N)=O)[C@@H](C)CC)C(C)C [Peptide 6] (H-CAAARWKKAFIAVSAANRFKKIS-NH2; N-terminus assumed) | 1.8 (10.9) × 10^-1 s^-1 | ≥ 0.0001 | 980000 | hardly competed by an excess of unlabelled peptide after 1000 minutes | 2.2e-06 |  | largest improvements | greatest improvement in affinity; also recorded: greatest improvement in Kd
7 | CC[C@H](C)[C@H](NC(=O)[C@H](C)NC(=O)[C@H](CC(N)=O)NC(=O)[C@H](CCCCN)NC(=O)[C@H](CCCCN)NC(=O)[C@H](Cc1c[nH]c2ccccc12)NC(=O)[C@H](CCCNC(=N)N)NC(=O)[C@H](C)NC(=O)[C@H](C)NC(=O)[C@H](C)NC(=O)[C@@H](N)CS)C(=O)N[C@@H](C)C(=O)N[C@H](C(=O)N[C@@H](CO)C(=O)N[C@@H](C)C(=O)N[C@@H](C)C(=O)N[C@@H](CC(N)=O)C(=O)N[C@@H](CCCNC(=N)N)C(=O)N[C@@H](Cc1ccccc1)C(=O)N[C@@H](CCCCN)C(=O)N[C@@H](CCCCN)C(=O)N[C@H](C(=O)N[C@@H](CO)C(N)=O)[C@@H](C)CC)C(C)C [Peptide 7] (H-CAAARWKKNAIAVSAANRFKKIS-NH2; N-terminus assumed) | 2.5 (10.7) × 10^-1 s^-1 | 0.00039 | 900000 |  | 0.0006 |  |  | 
